Activity calls are given as the source filed them. The calls are words filed in the database; no cut-off is given here.
Key:
[1] = biological target: T1, Nitric oxide synthase 3 (Homo sapiens) (UniProt P29474); assay: Activation of eNOS activity in cisplatin-treated HUVEC cells assessed as increase in eNOS phosphorylation at Ser1177 residue at 30 uM preincubated with eNOS inhibitor, N(G)-nitro-L-arginine methyl ester followed by compound addition measured after 5 to 240 mins by Western blot analysis; assay type: cell-based; conditions: time 5-240 min
T1 sequence (whole entry): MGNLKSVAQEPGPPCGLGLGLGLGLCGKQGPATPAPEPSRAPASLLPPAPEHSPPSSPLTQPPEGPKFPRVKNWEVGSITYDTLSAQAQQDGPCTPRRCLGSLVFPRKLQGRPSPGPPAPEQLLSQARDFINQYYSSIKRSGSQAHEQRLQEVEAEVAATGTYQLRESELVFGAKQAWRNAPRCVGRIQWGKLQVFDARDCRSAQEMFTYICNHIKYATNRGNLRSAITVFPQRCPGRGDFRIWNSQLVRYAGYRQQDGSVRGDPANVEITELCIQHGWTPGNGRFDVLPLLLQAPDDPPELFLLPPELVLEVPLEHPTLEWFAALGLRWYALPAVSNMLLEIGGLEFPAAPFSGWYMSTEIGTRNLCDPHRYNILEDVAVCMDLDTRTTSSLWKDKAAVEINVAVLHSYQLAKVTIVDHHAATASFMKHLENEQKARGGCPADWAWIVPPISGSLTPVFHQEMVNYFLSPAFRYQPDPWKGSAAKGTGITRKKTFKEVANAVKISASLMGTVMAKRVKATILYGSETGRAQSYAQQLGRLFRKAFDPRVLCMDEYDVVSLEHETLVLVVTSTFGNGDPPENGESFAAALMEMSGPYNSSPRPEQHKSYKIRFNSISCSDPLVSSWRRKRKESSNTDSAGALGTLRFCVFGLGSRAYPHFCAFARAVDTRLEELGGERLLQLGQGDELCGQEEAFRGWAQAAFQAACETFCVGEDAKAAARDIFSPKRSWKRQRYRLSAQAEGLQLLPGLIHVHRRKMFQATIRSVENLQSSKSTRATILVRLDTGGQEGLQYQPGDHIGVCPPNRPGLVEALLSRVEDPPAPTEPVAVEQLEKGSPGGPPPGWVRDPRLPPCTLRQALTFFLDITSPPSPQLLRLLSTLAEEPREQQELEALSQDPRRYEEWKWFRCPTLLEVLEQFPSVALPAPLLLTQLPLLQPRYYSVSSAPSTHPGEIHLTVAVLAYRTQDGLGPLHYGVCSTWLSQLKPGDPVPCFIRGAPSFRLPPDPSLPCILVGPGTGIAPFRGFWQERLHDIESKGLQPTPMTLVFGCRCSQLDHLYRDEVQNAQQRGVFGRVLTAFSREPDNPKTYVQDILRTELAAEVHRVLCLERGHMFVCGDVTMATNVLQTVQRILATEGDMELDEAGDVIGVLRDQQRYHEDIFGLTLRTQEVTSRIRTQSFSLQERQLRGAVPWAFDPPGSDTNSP

[2] = biological target: Transcription factor p65 (Homo sapiens) (UniProt Q04206); assay: Inhibition of cisplatin-induced phosphorylation of p65 subunit at Ser536 residue in HUVEC cells at 30 uM incubated for 1 hr by Western blot analysis; assay type: cell-based
Transcription factor p65 (Homo sapiens), sequence (Q04206 whole entry): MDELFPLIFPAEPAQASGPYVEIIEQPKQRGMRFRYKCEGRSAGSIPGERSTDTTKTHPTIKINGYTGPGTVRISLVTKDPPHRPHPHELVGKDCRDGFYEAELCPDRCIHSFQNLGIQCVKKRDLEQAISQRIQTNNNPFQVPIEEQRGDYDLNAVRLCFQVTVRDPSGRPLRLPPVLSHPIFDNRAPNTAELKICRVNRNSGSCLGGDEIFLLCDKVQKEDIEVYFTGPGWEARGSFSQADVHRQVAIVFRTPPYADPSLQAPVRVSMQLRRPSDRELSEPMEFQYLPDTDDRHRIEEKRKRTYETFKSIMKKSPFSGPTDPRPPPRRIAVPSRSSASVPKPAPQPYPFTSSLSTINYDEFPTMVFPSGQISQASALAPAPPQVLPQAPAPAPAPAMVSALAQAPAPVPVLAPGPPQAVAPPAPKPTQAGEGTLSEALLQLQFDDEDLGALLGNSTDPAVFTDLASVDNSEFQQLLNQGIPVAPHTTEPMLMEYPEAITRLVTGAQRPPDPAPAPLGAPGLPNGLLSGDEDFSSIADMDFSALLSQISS

[3] = biological target: T1, Nitric oxide synthase 3 (Homo sapiens); assay: Activation of eNOS activity in cisplatin-treated HUVEC cells assessed as increase in eNOS phosphorylation at Ser1177 residue at 30 uM measured after 5 to 60 mins by Western blot analysis; assay type: cell-based; conditions: filed as activator, time 5-60 min
HUVEC [4] = assay: Upregulation of cytosolic p65 level in cisplatin-treated HUVEC cells at 30 uM preincubated with eNOS inhibitor, N(G)-nitro-L-arginine methyl ester followed by compound addition and further incubated for 1 hr by Western blot analysis; assay type: functional, cell-based; conditions: Homo sapiens
[5] = biological target: T2, NF-kappa-B inhibitor alpha (Homo sapiens) (UniProt P25963); assay: Inhibition of cisplatin-induced phosphorylation of IkappaBalpha at Ser32/36 residue in HUVEC cells at 30 uM incubated for 1 hr by Western blot analysis; assay type: cell-based
T2 sequence (whole entry): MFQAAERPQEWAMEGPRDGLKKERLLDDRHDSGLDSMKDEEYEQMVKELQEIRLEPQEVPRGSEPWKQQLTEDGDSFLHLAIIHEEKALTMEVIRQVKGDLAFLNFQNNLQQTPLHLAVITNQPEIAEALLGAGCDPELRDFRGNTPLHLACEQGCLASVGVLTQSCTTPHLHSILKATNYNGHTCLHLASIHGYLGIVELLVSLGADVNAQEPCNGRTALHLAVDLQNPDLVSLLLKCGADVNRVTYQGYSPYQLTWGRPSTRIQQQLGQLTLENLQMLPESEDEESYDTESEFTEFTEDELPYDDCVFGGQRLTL

HUVEC [6] = assay: Inhibition of cisplatin-induced PKCalpha translocation in HUVEC cells assessed as reduction in membrane PKCalpha activity at 30 uM incubated for 15 mins in presence of cisplatin by Western blot analysis; assay type: functional, cell-based; conditions: Homo sapiens
HUVEC [7] = assay: Downregulation of cisplatin-induced ICAM1 protein expression in HUVEC cells at 30 uM incubated for 1 hr by Western blot analysis; assay type: functional, cell-based; conditions: Homo sapiens
U-937 [8] = assay: Cytotoxicity against human U-937 cells assessed as reduction in cell viability at <=30 uM measured after 24 hrs by MTT assay; assay type: toxicity, cell-based; conditions: u-937, 24 h
U-937 [9] = assay: Inhibition of cisplatin-induced ICAM1 dependent HUVEC cells adhesion to human U-937 cells at 10 to 30 uM preincubated with HUVEC cells for 4.5 hrs in presence of cisplatin followed by U-937 cell suspension addition and measured after 1 hr by BCECF fluorescent probe based assay; assay type: functional; conditions: dose 10-30 µM, time 5.5 hrs
HUVEC [10] = assay: Improvement in cisplatin-induced endothelial monolayer integrity in HUVEC cells assessed as reduction in transmembrane movement of albumin at 30 uM preincubated with compound followed by cisplatin stimulation and measured after 2 hrs; assay type: functional, cell-based; conditions: Homo sapiens
HUVEC [11] = assay: Inhibition of cisplatin-induced TRPC1 phosphorylation in [32P] orthophosphate labeled HUVEC cells at 30 uM incubated for 15 mins in presence of cisplatin and eNOS inhibitor, N(G)-nitro-L-arginine methyl ester by Western blot analysis; assay type: cell-based; conditions: Homo sapiens
HUVEC [12] = assay: Downregulation of cisplatin-induced PKCalpha translocation in HUVEC cells at 30 uM incubated for 15 mins in presence of cisplatin and eNOS inhibitor, N(G)-nitro-L-arginine methyl ester by Western blot analysis; assay type: functional, cell-based; conditions: Homo sapiens
HUVEC [13] = assay: Downregulation of cisplatin-induced ICAM1 protein expression in HUVEC cells at 100 uM incubated for 1 hr by Western blot analysis; assay type: functional, cell-based; conditions: Homo sapiens
HUVEC [14] = assay: Improvement in cisplatin-induced endothelial monolayer integrity in HUVEC cells assessed as increase in transendothelial electric resistance at 30 uM preincubated with compound in presence of PI3K inhibitor, wortmannin followed by cisplatin stimulation and measured after 45 mins; assay type: functional, cell-based; conditions: Homo sapiens
HUVEC [15] = assay: Downregulation of cisplatin-induced PKCalpha translocation in HUVEC cells at 30 uM incubated for 15 mins in presence of cisplatin and PI3K inhibitor, wortmannin by Western blot analysis; assay type: functional, cell-based; conditions: Homo sapiens
HUVEC [16] = assay: Inhibition of cisplatin-induced ICAM-1 mRNA expression in HUVEC cells preincubated for 30 mins followed by cisplatin addition and measured after 24 hrs by RT-PCR analysis; assay type: functional, cell-based; conditions: Homo sapiens, dose 10-30 µM, time 24.5 hrs

C=C1CC[C@@H]2[C@](C)(CO)[C@H](O)CC[C@@]2(C)[C@@H]1C/C=C1/C(=O)OC[C@H]1O [ANDROGRAPHOLIDE]
Activity [1]: inactive | inhibition [2]: Active | Activity [3]: Active | Activity (HUVEC [4]): inactive | inhibition [5]: Active | inhibition (HUVEC [6]): Active | Activity (HUVEC [7]): Active | Activity (U-937 [8]): Non-Toxic | inhibition (U-937 [9]): Active | Activity (HUVEC [10]): Active | inhibition (HUVEC [11]): inactive | Activity (HUVEC [12]): inactive | Activity (HUVEC [13]): Active | Activity (HUVEC [14]): inactive | Activity (HUVEC [15]): inactive | inhibition (HUVEC [16]): Dose-Dependent Effect

Reference: ChEMBL document CHEMBL5223073, “Andrographolide suppresses cisplatin-induced endothelial hyperpermeability through activation of PI3K/Akt and eNOS -derived nitric oxide” (Bioorg Med Chem, 2020)
